# Test results published in paper PMC12057336 (Antimicrobial Agents and Chemotherapy, 2025).
# How the values were obtained:
# [1] = Pharmacokinetics (plasma, urine) of linezolid and metabolites after i.g. or i.v. linezolid in control, CCl4-induced and 5/6 Nx rats; details: for AUC(0-inf): AUC0-∞
# Source text: The control group rats were intraperitoneally injected with equal volumes of soybean oil. […] The upper and lower poles of the left kidney were removed under urethane anesthesia (1 g/kg; administered by i.p. injection). One week later, the right kidney was completely excised. Rats in the control group underwent a sham operation ([35]). Serum creatinine (CREA), blood urea nitrogen (BUN), aspartate aminotransferase (AST), alanine aminotransferase (ALT), alkaline phosphatase (ALP), lactate dehydrogenase (LDH), and total bilirubin (TBIL) levels were measured using commercial kits (Shanghai Enzyme-linked Biotechnology Co., Ltd., Shanghai, China) according to the protocols described by the manufacturer before pharmacokinetic experiments.
# The rats were first divided into two groups: i.v. or i.g. administration groups. These two groups were further divided into the following four subgroups (n = 5): soybean oil-treated control rats, CCl4-induced rats, sham-operated control rats, and 5/6 Nx rats. […] Blood samples (200 µL) were collected from the retro-orbital venous plexus into heparinized tubes at 0 (pre-dose), 0.25, 0.5, 0.75, 1, 2, 3, 4, 6, 8, 12, and 24 h after i.g. administration, and at 0 (pre-dose), 0.083, 0.25, 0.5, 0.75, 1, 2, 3, 4, 6, 8, 12, and 24 h after i.v. administration. Plasma samples were separated by centrifugation at 6,000 × g for 5 min at 4°C and stored at −80°C until further analysis using HPLC.
# Chromatographic separation was performed using the SinoPak BEH T-C18 column (4.6 mm × 150 mm, 5 µm, Hi-tech Zone, China) at 35°C. A photodiode array detector was set at a wavelength of 254 nm. The mobile phase consisted of 0.1% (vol/vol) formic acid in water (A) and acetonitrile (B). The gradient conditions were as follows: 0–4.0 min, 14%–86% B; 4.0–5.0 min, […]; 5.0–5.7 min, return to 14% B; 5.7–8.0 min, equilibrium. The flow rate was 1.0 mL/min.
# Plasma and tissue homogenate samples (100 µL) were mixed with 10 µL of IS (50.0 mg/L) and 200 µL of acetonitrile, followed by vortex-mixing for 3 min. The mixture was centrifuged at 15,000 × g for 15 min at 4°C. Then, 5 µL of the supernatant was analyzed. The urine samples were diluted and directly injected for measurement.
# The area under the plasma concentration-time curve from 0 to infinity (AUC0-∞), time to maximum concentration (tmax), Cmax, t1/2, CL, and Vd were calculated by non-compartmental model analysis using the Phoenix 8.1.0 WinNonlin software (Pharsight Corp, Princeton, NJ, USA). The renal clearance (CLr), in vitro hepatic clearance (CLint, in vitro), and bioavailability (F) were calculated using the following equations:
# F (%) = Div×AUC0−∞, ig/Dig×AUC0−∞, iv
# Atotal is the total cumulative amount excreted in urine over 24 h. D is the administered dose. The scale factor is 4,680 (10^6 cells/kg). All data are expressed as mean ± standard deviation (SD). Statistical analysis was performed using Student’s two-tailed unpaired t-test or nonparametric Mann-Whitney U test with SPSS Statistics 19.0 (SPSS Inc., Chicago, IL, USA). Statistical significance was set at P < 0.05.
# MAT1 = system: MAT1; parameters: method as in PMID 27645247, PMID 26976869, PMID 27550354; details: cited from earlier work
# OAT1 = details: cited from earlier work
# [2] = Sprague-Dawley, rat, in vivo, iv
# [3] = Sprague-Dawley, rat, in vivo, po, 63 mg/kg
smiles,measurement,setting,value
CC(=O)NC[C@H]1CN(c2ccc(N3CCOCC3)c(F)c2)C(=O)O1 [Linezolid],change of cumulative urinary excretion rate,"[1]; 5/6 Nx rats vs control, P < 0.05",significantly decreased
same,change of cumulative urinary excretion rate,[1]; CCl4-induced rats,no significant changes
same,decrease of CLr in comparison to sham-operated control rats,"[1]; Sprague-Dawley, rat, in vivo",50.0%
same,decrease of CL in comparison to soybean oil-treated control rats,[1]; [2],27.0%
same,decrease of CLr in comparison to sham-operated control rats,[1]; [2],66.7%
same,AUC(0-inf),"[1]; Sprague-Dawley, rat, in vivo, iv, 25 mg/kg",69.3 ± 8.67 µg·h/mL
same,clearance,"[1]; Sprague-Dawley, rat, in vivo, iv, 25 mg/kg, CL",6.17 mL/min/kg
same,Vd,"[1]; Sprague-Dawley, rat, in vivo, iv, 25 mg/kg, Vd",0.63 ± 0.05 L/kg
same,decrease of CL in comparison to soybean oil-treated control rats,"[1]; Sprague-Dawley, rat, in vivo, po",13.8%
same,Tmax,[1]; [3],0.9 ± 0.14 h
same,tmax,[1]; [3],1.0 h
same,AUC(0-inf),[1]; [3],220 ± 27.6 µg·h/mL
same,CL renal,"[1]; Sprague-Dawley, rat, in vivo, po, 63 mg/kg, CLr",0.333 mL/min/kg
same,Cmax,"[1]; Sprague-Dawley, rat, in vivo, po, 63 mg/kg, Cmax",35300 ± 1100 ng/mL
same,half-life,"[1]; Sprague-Dawley, rat, in vivo, po, 63 mg/kg, t1/2",1.84 ± 0.27 h
same,inhibitor of MAT1,MAT1,not an inhibitor
same,inhibitor of OAT1,OAT1,inhibitor
